Marks after values point to notes of the source that are not given here. No end group written: not given here.
Tests used:
[1] = molecular target: T1, Angiotensin-converting enzyme (ACE) (Sus scrofa, UniProt F1RRW5); test: ACE inhibition activity determination (HHL substrate, colorimetric); assay type: biochemical, pig; conditions: for ACE inhibition % (before GI digestion): sample 0.1 mg of peptides/ml, 5 mM HHL, pH 8.3, 37°C, 30 min, absorbance 410 nm, mean ± SD, n = 3
T1 construct: Angiotensin-converting enzyme (ACE) was extracted and purified from pig lung tissues; from tissue; host or cells: pig lung
T1 sequence (F1RRW5 34-1309): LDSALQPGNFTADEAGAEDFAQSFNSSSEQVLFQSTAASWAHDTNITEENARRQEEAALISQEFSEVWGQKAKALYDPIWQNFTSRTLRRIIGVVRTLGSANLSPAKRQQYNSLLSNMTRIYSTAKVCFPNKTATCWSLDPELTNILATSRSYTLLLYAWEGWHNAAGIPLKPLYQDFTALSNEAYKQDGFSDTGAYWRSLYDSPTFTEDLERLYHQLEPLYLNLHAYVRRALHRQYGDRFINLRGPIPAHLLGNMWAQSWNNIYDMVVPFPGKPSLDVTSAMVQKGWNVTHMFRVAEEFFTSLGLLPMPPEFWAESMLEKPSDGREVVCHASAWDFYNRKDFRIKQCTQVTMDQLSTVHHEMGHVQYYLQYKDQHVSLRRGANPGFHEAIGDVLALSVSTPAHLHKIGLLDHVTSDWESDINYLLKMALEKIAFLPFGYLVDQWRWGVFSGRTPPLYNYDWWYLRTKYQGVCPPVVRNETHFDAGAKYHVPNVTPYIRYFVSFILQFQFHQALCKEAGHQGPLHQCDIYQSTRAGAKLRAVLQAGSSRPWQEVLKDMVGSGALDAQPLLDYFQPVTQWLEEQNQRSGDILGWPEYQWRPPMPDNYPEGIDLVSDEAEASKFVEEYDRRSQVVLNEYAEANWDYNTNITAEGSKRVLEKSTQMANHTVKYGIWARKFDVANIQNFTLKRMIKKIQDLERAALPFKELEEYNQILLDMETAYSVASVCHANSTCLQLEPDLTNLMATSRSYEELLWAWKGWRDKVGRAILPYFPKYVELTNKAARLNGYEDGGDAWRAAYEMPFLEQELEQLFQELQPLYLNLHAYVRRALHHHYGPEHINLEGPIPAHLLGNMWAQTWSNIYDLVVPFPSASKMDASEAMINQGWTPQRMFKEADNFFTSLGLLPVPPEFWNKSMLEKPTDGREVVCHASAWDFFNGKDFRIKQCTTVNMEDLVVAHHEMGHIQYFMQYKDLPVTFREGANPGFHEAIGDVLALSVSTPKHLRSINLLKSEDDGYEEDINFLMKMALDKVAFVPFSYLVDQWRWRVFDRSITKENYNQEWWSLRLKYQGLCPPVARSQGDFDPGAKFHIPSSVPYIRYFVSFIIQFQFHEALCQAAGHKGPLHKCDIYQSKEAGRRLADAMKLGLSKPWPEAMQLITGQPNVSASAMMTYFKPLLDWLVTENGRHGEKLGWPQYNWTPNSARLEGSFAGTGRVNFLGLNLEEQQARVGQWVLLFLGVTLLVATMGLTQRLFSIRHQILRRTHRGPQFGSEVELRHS
Source text: Moth bean seeds (MBS-27 variety) were obtained from Mahatma Phule Krishi Vidyapeeth (MPKV), Rahuri, Maharashtra. Angiotensin-converting enzyme (ACE) was extracted and purified from pig lung tissues according to the protocol described by Abdulazeez Mansurah et al. ([19]). Pig lung tissues were brought from a local slaughterhouse (Deonar Abattoir, Mumbai). Pepsin (1,000 U/mg, from porcine), pancreatin 3x (3 NF/USP, from porcine pancreas), trypsin (>2,000 U/g, from bovine pancreas), and papain (from papaya latex) were purchased from HiMedia Laboratories Pvt. Ltd., Mumbai. HHL (N-Hippuryl- His- Leu hydrate) and captopril were purchased from Sigma–Aldrich Chemicals Private Limited, Bangalore, India. All the chemicals used were of analytical grade.
(§1) Angiotensin-converting enzyme (ACE) inhibition activity was performed according to Jimsheena et al. ([23]), with minor modifications. In brief, 10 μl (0.1 mg of peptides/ml) of the sample was first incubated with 10 μl of ACE at 37°C for 5 min. Later, 30 μl of 50 mM phosphate buffer (pH 8.3) containing 150 mM NaCl and 50 μl of 5 mM HHL was added and mixed completely. The reaction mixture was kept for incubation in a water bath at 37°C for 30 min. The reaction was terminated by adding 100 μl of 1 M HCl. Subsequently, 200 μl of pyridine and 100 μl of benzene sulfonyl chloride (BSC) were added sequentially to the solution and vortexed for 10 s. The reaction mixture was, then, cooled on ice, and the absorbance was measured at 410 nm using a spectrophotometer. Captopril was used as a reference for comparison. ACE inhibition activity (%) was calculated as follows:
ACE inhibition % = (1− As/Ac) x 100
where As is the absorbance of the mixture containing the sample, and Ac is the absorbance of the mixture without inhibitor at 410 nm. IC50 values were determined for each fraction using a plot of ACE activity vs. inhibitor concentration.

[2] = molecular target: T1, Angiotensin-converting enzyme (ACE); test: Gastrointestinal digestion simulation (SGF, SIF) followed by ACE inhibition assay; assay type: in vitro ADME, pig; set-up: increase in ACE inhibitory activity after intestinal digestion simulation / increase in ACE inhibitory activity due to cleavage by pepsin / ACE inhibitory activity decreased to (% of initial) following intestinal digestion simulation: concentration or dose not given beside the values; conditions: for ACE inhibition (%) after SGF: after gastric phase: simulated gastric fluid, pepsin 2,000U/ml, pH 2.5, 2 h; for ACE inhibition (%) after SGF / ACE inhibition (%) After SIF: 37°C, read-out ACE inhibition, mean ± SD, n = 3; for ACE inhibition (%) After SIF: after intestinal phase: simulated intestinal fluid, pancreatin 100U/ml, bile juice, pH 8, 2 h, following gastric phase; for increase in ACE inhibitory activity due to cleavage by pepsin: after gastric phase
Experimental: as §1, with “follows: […]” for “follows:”
The peptides synthesized were subjected to GI digestion simulation, as per the procedure described by Minekus et al. ([24]), with minor modifications. Bile juice was prepared according to Versantvoort et al. ([25]). Three steps of digestion (the mouth, stomach, and small intestine) were simulated, and the fluid was prepared to mimic physiological conditions. The composition of the simulated fluid is presented in Supplementary Table S2. The pH of the solution was adjusted by using 5 N NaOH and 6 N HCl. The digestion process was carried out using a stirring water bath at 37°C. Sampling was carried out after each step of digestion, and % ACE inhibition and degree of hydrolysis were calculated. Enzymes were inactivated by heating the fraction at 90°C for 10 min., followed by centrifugation at 10,000 g at 4°C for 15 min. The supernatant obtained was stored at −20°C for later study.

[3] = molecular target: T1, Angiotensin-converting enzyme (ACE); test: ACE inhibition kinetics (Lineweaver-Burk plot, Dixon plot); assay type: biochemical, pig; conditions: HHL 1 to 7.5 mM, peptide 5 and 10 μM
Experimental: The mechanism of ACE inhibition by a peptide showing the lowest IC50 value was identified by the rate of HHL hydrolysis measured over a range of concentrations (1 to 7.5 mM) by varying concentrations of inhibitory peptide (5 and 10 μM). The analysis was carried out by using a double reciprocal Lineweaver–Burk plot, to determine the mode of ACE inhibition, Michaelis–Menten constant (Km), and the maximum velocity (Vmax). The inhibitor constant (Ki) was determined by the Dixon plot.

[4] = relative to activity before GI digestion

Substance | ACE inhibition % (before GI digestion) ([1]; synthesized peptide) | ACE inhibition (%) after SGF [2] | ACE inhibition (%) After SIF [2] | further results
AENNQR [pp-25] | 11.8 ± 2.9^i % | 9.8 ± 2.8^i % | 14.5 ± 0.5^h % | –
ATDETGSK [pp-33] | 13.1 ± 4.7^h % | 15.1 ± 0.6^h % | 15.6 ± 1.9^h % | –
FPPPKVIQ [pp-28] | 93.4 ± 1.7^a % | 90.5 ± 4.6^a % | 59.6 ± 0.3^b % | IC50 ([1]; purification steps of ACE-inhibitory peptide, read-out: IC50 (μg/ml) (converted)): 216 nM; IC50 ([1]; synthesized peptide, before GI digestion, read-out: IC50 of ACE inhibition): 240 nM; IC50 ([2]; after GI digestion simulation (digestion by trypsin in intestinal phase)): 20 µM; ACE inhibition (%) After SIF ([2]; listed as FPPPKVIQ): ~ 59%; Ki [3]: 810 nM
GDTGRQQ [pp-1] | 21.8 ±2.3^g % | 24.0 ± 5.7^g % | 7.6 ± 1.2^j % | ACE inhibitory activity decreased to (% of initial) following intestinal digestion simulation [2, 4]: 35%
HDTGRQH [pp-8] | 12.1 ±5.5^i % | 11.8 ± 1.3^i % | 21.3 ± 0.3^g % | –
HPGDDKS [pp-30] | 34.3 ± 7.7^e % | 31.1 ± 0.7^e % | 6.2 ± 4.3^j % | ACE inhibitory activity decreased to (% of initial) following intestinal digestion simulation [2, 4]: 18%
HVDSGK [pp-18] | 8.2 ± 4.3^i % | 9.6 ± 0.5^i % | 15.3 ± 3.6^h % | increase in ACE inhibitory activity after intestinal digestion simulation [2, 4]: 86%
IEPLPPR [pp-16] | 36.0 ± 1.9^e % | 30.0 ± 0.4^f % | 33.6 ± 3.2^f % | –
ISGGSSR [pp-39] | 23.6 ± 6.9^g % | 21.1 ± 0.8^g % | 19.0 ± 1.8^g % | –
LTAEHPVV [pp-44] | 6.4 ± 1.0^j % | 21.5 ± 3.4^g % | 18.8 ± 9.9^g % | increase in ACE inhibitory activity due to cleavage by pepsin [2, 4]: 236%
NNPHR [pp-24] | 47.1 ±6.7^d % | 41.4 ± 2.2^d % | 15.0 ± 0.6^h % | reduction in ACE inhibitory activity after intestinal digestion simulation [2, 4]: 68%
TFAPGF [pp-45] | 41.9 ± 6.9^d % | 74.3 ± 2.2^b % | 17.9 ± 1.8^g % | increase in ACE inhibitory activity due to cleavage by pepsin [2, 4]: 77%
TGDTGR [pp-6] | 3.9 ± 5.5^k % | 3.9 ± 1.3^k % | 4.2 ± 1.3^k % | –
TGDTGRQH [pp-4] | 16.5 ± 2.1^g % | 18.0 ± 2.9^g % | 33.6 ± 1.2^f % | increase in ACE inhibitory activity after intestinal digestion simulation [2, 4]: 103%
VEPLPPR [pp-15] | 55.9 ± 1.3^c % | 51.0 ± 3.4^c % | 52.3 ± 3.8^c % | –
